Reference: patent EP0334119A1, “Compounds for inhibiting the biosynthesis of lipoxygenase-derived metabolites of arachidonic acid” (BOEHRINGER INGELHEIM PHARMACEUTICALS INC., priority 1988, dated 1989)
Where a name gives a salt, the structure may show the parent alone. Read-outs that look alike come from different tables or passages of the source.

Key:
[1] = tested on: A23187-Induced LTB₄ Generation; experiment: Ex vivo inhibition of A23187-induced LTB4 generation in squirrel monkey blood; set-up: species or system Squirrel Monkeys; conditions: Primates
Procedure: Ex Vivo Inhibition of A23187-Induced LTB₄ Generation in Squirrel Monkeys.
Incubation of squirrel monkey whole blood with calcium ionophore A23187 stimulates the production of LTB₄. This LTB₄ production can be inhibited by a lipoxygenase inhibitor in vitro by incubating the blood with the inhibitor prior to A23187 challenge. By dosing squirrel monkeys with a lipoxygenase inhibitor prior to withdrawal of a blood sample, one can determine the ability of the lipoxygenase inhibitor to be absorbed into the bloodstream by measuring the inhibition of A23187 induced LTB₄ production ex vivo.
Squirrel monkeys (400-650g) were fasted for 18 hours, anesthetized and dosed either orally or intraperitoneally with test compound. After the desired time period, blood was withdrawn from the femoral vein. The blood (0.5 mL) was heparinized, preincubated at 37°C for 5 minutes and stimulated with A23187 in DMSO to give a final concentration of 30 microM. The reaction was terminated with EGTA (final concentration 10 microM), and the blood centrifuged. Levels of LTB₄ in the plasma were then determined by radioimmunoassay.
The results shown in Table 4 illustrate the ability of a prodrug of type 2a or 2b to be absorbed after ip or po dosing compared to the parent compound 1a.

[2] = tested on: 5-lipoxygenase; experiment: Inhibition of antigen-induced, late phase inflammatory cell infiltration in guinea pigs; type: in vivo; conditions: 60 minutes before antigen challenge, lung lavage four hours after challenge
Text: Inhibition of Antigen-Induced, Late Phase Inflammatory Cell Infiltration in Guinea Pigs
This model is used to measure the ability of a drug to inhibit 5-lipoxygenase in vivo. In addition to SRS-A, a chemotactic substance LTB₄ is also released by cells in the sensitized guinea pig lung upon stimulation by antigen. As a result there is a measurable influx of cells into the lung. Therefore, an inhibitor of 5-lipoxygenase could reduce the formation of LTB₄ and thereby reduce the cell influx into the lung.
Male outbred Hartley strain albino guinea pigs (250-300 grams) were sensitized to ovalbumin as in the procedure for inhibition of antigen-induced, SRS-A mediated bronchioconstriction in conscious guinea pigs.
Sensitized guinea pigs were fasted and pretreated with pyrilamine and indomethacin as in bronchioconstriction testing procedure. Test compounds, suspended in 1% acacia, were administered 60 minutes before antigen challenge. […] Whole lung lavage was performed with three 5 mL aliquots of normal saline buffered with sodium bicarbonate.
Total cell counts were performed on a Coulter Counter, and differential cell counts were performed. Compounds were evaluated for their ability to alter the antigen-induced total cell influx and, more specifically, neutrophil (PMN) influx.

[3] = molecular target: T1, 5-lipoxygenase (Homo sapiens, UniProt P09917); experiment: Inhibition of 5-lipoxygenase (5-HETE biosynthesis) in human polymorphonuclear leukocytes; type: cell-based; conditions: human PMN's, 5-HETE band vs control; test concentration 1 microM; read-out: Inhibition of 5-LO % at 1 M
T1 construct: Human PMN's (5 x 10⁶ cells/0.5 mL) in pH 7.2 phosphate buffer; endogenous in cells; host or cells: human polymorphonuclear leukocytes (PMN)
T1 sequence (P09917 1-674): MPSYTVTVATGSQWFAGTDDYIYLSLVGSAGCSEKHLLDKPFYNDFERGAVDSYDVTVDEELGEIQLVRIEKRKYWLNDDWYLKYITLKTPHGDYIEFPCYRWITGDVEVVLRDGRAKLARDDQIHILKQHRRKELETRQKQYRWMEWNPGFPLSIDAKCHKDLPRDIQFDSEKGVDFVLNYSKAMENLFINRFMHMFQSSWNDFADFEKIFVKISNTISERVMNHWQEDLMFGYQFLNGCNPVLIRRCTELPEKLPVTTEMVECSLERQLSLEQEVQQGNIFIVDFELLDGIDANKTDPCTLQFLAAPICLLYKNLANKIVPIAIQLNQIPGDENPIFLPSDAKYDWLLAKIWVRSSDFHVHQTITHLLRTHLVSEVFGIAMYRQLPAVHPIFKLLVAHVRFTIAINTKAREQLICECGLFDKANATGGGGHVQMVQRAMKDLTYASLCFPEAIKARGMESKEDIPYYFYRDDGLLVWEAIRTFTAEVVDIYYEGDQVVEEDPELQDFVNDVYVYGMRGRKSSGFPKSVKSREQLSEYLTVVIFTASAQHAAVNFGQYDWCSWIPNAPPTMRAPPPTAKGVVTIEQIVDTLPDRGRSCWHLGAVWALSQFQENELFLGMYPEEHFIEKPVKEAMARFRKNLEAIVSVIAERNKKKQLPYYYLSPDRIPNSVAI
Procedure: Inhibition of 5-Lipoxygenase in Human Polymorphonuclear Leukocytes (PMN's)
The inhibition of 5-lipoxygenase is measured by determining whether and to what extent test compounds inhibit the amount of 5-HETE biosynthesized by human PMN's. 5-HETE biosynthesis serves as a marker for arachidonic acid metabolism by 5-lipoxygenase.
Human PMN's (5 x 10⁶ cells/0.5 mL) in pH 7.2 phosphate buffer containing Ca²⁺ (0.6 mM) and Mg²⁺ (1.0 mM) were incubated with test compound for 15 minutes at 37°C with shaking. Calcium ionophore A23187 (0.25 mM, 0.01 mL) and [¹⁴C] arachidonic acid (0.10 microCi in 0.025 mL 0.01N NaOH) were added, and the mixture incubated another 2.5 minutes. The reaction was terminated by the addition of 0.025 mL of 1.0 N HCl. The mixture was then extracted with ethyl acetate-methylene chloride (2:3) supplemented with 12 microgram/mL cold arachidonic acid to reduce degradation of the metabolites. After concentrating the organic phase, the number of microlitres containing 5 x 10⁴ cpm was determined and that volume applied to a silica gel plate. The plate was developed in methylene-chloride-methanol-acetic acid-water (90:8:1:0.8), air dried, and counted on a Berthold linear TLC analyzer. The integrated area of the 5-HETE band was determined and compared with the control (no drug).
In cases where the IC₅₀ was determined, the result is shown in microM.

[4] = 1 h, 30 mg/kg ip, 60 min after dosing, vehicle per footnotes 2-4, read-out: Percent Inh. Monkey 2
[5] = 1 h, 30 mg/kg ip, 60 min after dosing, vehicle per footnotes 2-4, read-out: Percent Inh. Monkey 3
[6] = 1 h, 30 mg/kg ip, 60 min after dosing, vehicle per footnotes 2-4, read-out: Percent Inh. Monkey #1
[7] = 1 h, 30 mg/kg po, 60 min after dosing, vehicle per footnotes 2-4, read-out: Percent Inh. Monkey 2
[8] = 1 h, 30 mg/kg po, 60 min after dosing, vehicle per footnotes 2-4, read-out: Percent Inh. Monkey #1

Row | SMILES | inhibition at 1 µM [3] [%] | other results
1 | Cc1cc(C=Cc2cccs2)cc(C)c1OC(=O)CCC(=O)O [Compound 2a, 2,6-Dimethyl-4-[2-(2-thienyl)ethenyl]phenyl succinate] | – | inhibition at 30 mg/kg [1, 4]: 83%; inhibition at 30 mg/kg [1, 5]: 89%; inhibition at 30 mg/kg [1, 6]: 62%; inhibition at 30 mg/kg [1, 7]: 71%; inhibition at 30 mg/kg ([1]; 1 h, 30 mg/kg po, 60 min after dosing, vehicle per footnotes 2-4, read-out: Percent Inh. Monkey 3): 66%; inhibition at 30 mg/kg [1, 8]: 50%; inhibition at 30 mg/kg ([1]; 2 h, 30 mg/kg po, 120 min after dosing, dissolved in dilute alkali, read-out: Percent Inh. Monkey 2): 100%; inhibition at 30 mg/kg ([1]; 2 h, 30 mg/kg po, 120 min after dosing, dissolved in dilute alkali, read-out: Percent Inh. Monkey 3): 61%; inhibition at 30 mg/kg ([1]; 2 h, 30 mg/kg po, 120 min after dosing, dissolved in dilute alkali, read-out: Percent Inh. Monkey #1): 41%; inhibition at 30 mg/kg ([1]; 4 h, 30 mg/kg po, 240 min after dosing, dissolved in dilute alkali, read-out: Percent Inh. Monkey 2): 65%; inhibition at 30 mg/kg ([1]; 4 h, 30 mg/kg po, 240 min after dosing, dissolved in dilute alkali, read-out: Percent Inh. Monkey 3): 100%; inhibition at 30 mg/kg ([1]; 4 h, 30 mg/kg po, 240 min after dosing, dissolved in dilute alkali, read-out: Percent Inh. Monkey #1): 43%; % Inh. PMN ([2]; 10 mg/kg po): 93%; % Inh. Total Cells ([2]; 10 mg/kg po): 89%
2 | Cc1cc(C=Cc2ccc(Cl)s2)cc(C)c1O [Compound 1b] | 77 | –
3 | CC(C)c1cc(C=Cc2cccc(C(F)(F)F)c2)cc(C(C)C)c1O [Compound 1ay] | 34 | –
4 | COc1cc(C=Cc2ccsc2)cc(OC)c1O [Compound 1q] | 77 | –
5 | CCc1cc(C=Cc2ccsc2)cc(CC)c1O [Compound 1u] | 66 | –
6 | CC(C)c1cc(C=Cc2ccc(F)cc2)cc(C(C)C)c1O [Compound 1ax] | 32 | –
7 | COc1ccc(C=Cc2cc(F)c(O)c(OC)c2)cc1 [Compound 1az] | 63 | –
8 | Cc1cc(C=Cc2ccccn2)cc(C)c1O [Compound 1w] | 77 | –
9 | Cc1cc(C=Cc2ccsc2)cc(Cl)c1O [Compound 1s] | 75 | –
10 | COc1ccc(C=Cc2cc(C(C)C)c(O)c(C(C)C)c2)cc1 [Compound 1av] | 71 | –
11 | COc1cc(C=Cc2ccsc2)cc(F)c1O [Compound 1t] | 59 | –
12 | COc1cc(C=Cc2cccs2)cc(OC)c1O [Compound 1n] | 78 | –
13 | C=CCc1cc(C=Cc2cccs2)cc(C)c1O [Compound 1h] | 70 | % Inh. PMN ([2]; 10 mg/kg ip): 46%; % Inh. Total Cells ([2]; 10 mg/kg ip): 55%
14 | COc1cc(C=Cc2cccnc2)cc(C)c1O [Compound 1z] | 52 | –
15 | Cc1ccc(C=Cc2cc(C)c(O)c(C)c2)s1 [Compound 1c] | 62 | –
16 | Cc1cc(C=Cc2cccs2)cc(Cl)c1O [Compound 1l] | 84 | –
17 | COc1cc(C=Cc2ccsc2)cc(C)c1O [Compound 1p] | 70 | –
18 | C=CCc1cc(C=Cc2ccsc2)cc(C)c1O [Compound 1v] | 75 | –
19 | Cc1cc(C=Cc2ccncc2)cc(C)c1O [Compound 1y] | 46 | –
20 | CCc1cc(C=Cc2cccs2)cc(CC)c1O [Compound 1i, 2,6-Diethyl-4-[2-(2-thienyl)ethenyl]phenol] | 70 | % Inh. PMN ([2]; 30 mg/kg ip): 74%; % Inh. Total Cells ([2]; 30 mg/kg ip): 51%; % Inh. PMN ([2]; 30 mg/kg po): 51%; % Inh. Total Cells ([2]; 30 mg/kg po): 65%
21 | CCc1cc(C=Cc2cccnc2)cc(CC)c1O [Compound 1aa] | 59 | –
22 | Cc1cc(C=Cc2cccs2)cc(C)c1OC(=O)CN [Compound 2b, 2,6-Dimethyl-4-[2-(2-thienyl)ethenyl]phenyl glycinate hydrochloride] | – | inhibition at 30 mg/kg ([1]; 1 h, 24 mg/kg instead of 30 mg/kg po, 60 min after dosing, dissolved in distilled water, read-out: Percent Inh. Monkey 3): 33%; inhibition at 30 mg/kg [1, 4]: 56%; inhibition at 30 mg/kg [1, 5]: 69%; inhibition at 30 mg/kg [1, 6]: 78%; inhibition at 30 mg/kg [1, 7]: 54%; inhibition at 30 mg/kg [1, 8]: 62%
23 | COc1cc(C=Cc2cccs2)cc(F)c1O [Compound 1m] | 65 | –
24 | CC(C)c1cc(C=Cc2cccs2)cc(C(C)C)c1O [Compound 1j] | 78 | –
25 | C=CCc1cc(C=Cc2cccnc2)cc(C)c1O [Compound 1ac] | 61 | –
26 | COc1cc(C=Cc2ccc(Cl)s2)cc(C)c1O [Compound 1g] | 76 | –
27 | Cc1cc(C=Cc2cccs2)cc(F)c1O [Compound 1k] | 65 | –
28 | COc1ccc(C=Cc2cc(C(C)C)c(O)c(C(C)C)c2)cc1OC [Compound 1aw] | 57 | –
29 | CCc1cc(C=Cc2ccsc2)cc(OC)c1O [Compound 1r] | 82 | –
